Source: PubChem BioAssay AID330 (DTP/NCI, 2004)
Several values for one entry are separate records, joined by “and”; a condition that tells them apart may be missing. Equal entries are not always repeated. Toxic doses and inconclusive results are not listed. The calls were made as follows: active = survival T/C of 150% or more; inactive = T/C below 125% in these data.

Tested on: P388 leukemia ip, CD2F1 mice, survival T/C
Experiment: NCI In Vivo Anticancer Drug Screen. Data for tumor model P388 Leukemia (intraperitoneal) in CD2F1 (CDF1) mice
Conditions: endpoint: median survival time, higher = longer survival
Procedure, shortened: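 Mice carrying the transplanted tumor received test compound or vehicle. Survival was recorded in each group, and the value is the treated-group measurement divided by that of the vehicle-treated control group.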

[1] = dose: 50.0 mg/kg/injection, schedule: Q01DX005 (ip), vehicle: Klucel (hydroxypropylcellulose) (HPC)
[2] = dose: 100.0 mg/kg/injection, schedule: Q01DX005 (ip), vehicle: Klucel (hydroxypropylcellulose) (HPC)
[3] = dose: 200.0 mg/kg/injection, schedule: Q01DX005 (ip), vehicle: Klucel (hydroxypropylcellulose) (HPC)
[4] = dose: 60.0 mg/kg/injection, schedule: Q01DX005 (ip), vehicle: saline
[5] = dose: 120.0 mg/kg/injection, schedule: Q01DX005 (ip), vehicle: saline
[6] = dose: 240.0 mg/kg/injection, schedule: Q01DX005 (ip), vehicle: saline
[7] = dose: 12.5 mg/kg/injection, schedule: Q01DX009 (ip), vehicle: saline with Tween-80
[8] = dose: 50.0 mg/kg/injection, schedule: Q01DX009 (ip), vehicle: saline with Tween-80
[9] = dose: 50.0 mg/kg/injection, schedule: Q01DX009 (ip), vehicle: Klucel (hydroxypropylcellulose) (HPC)
[10] = dose: 100.0 mg/kg/injection, schedule: Q01DX009 (ip), vehicle: Klucel (hydroxypropylcellulose) (HPC)
[11] = dose: 200.0 mg/kg/injection, schedule: Q01DX009 (ip), vehicle: Klucel (hydroxypropylcellulose) (HPC)
[12] = dose: 25.0 mg/kg/injection, schedule: Q01DX009 (ip), vehicle: saline
[13] = dose: 50.0 mg/kg/injection, schedule: Q01DX009 (ip), vehicle: saline
[14] = dose: 120.0 mg/kg/injection, schedule: Q01DX005 (ip), vehicle: saline with Tween-80
[15] = dose: 240.0 mg/kg/injection, schedule: Q01DX005 (ip), vehicle: saline with Tween-80
[16] = dose: 100.0 mg/kg/injection, schedule: Q01DX009 (ip), vehicle: saline with Tween-80
[17] = dose: 100.0 mg/kg/injection, schedule: Q01DX009 (ip), vehicle: saline
[18] = dose: 200.0 mg/kg/injection, schedule: Q01DX009 (ip), vehicle: saline

Measured: T/C

O=[N+]([O-])c1cc2c(ccc3occc32)o1
inactive: [1] 102 % of control | [2] 97 % of control | [3] 98 % of control

NC(=O)[C@@H]1CCCN1C(=O)c1cccnc1
inactive: [4] 98 % of control | [5] 97 % of control | [6] 103 % of control

O=C(N=Nc1c(O)[nH]c2ccccc12)C(=O)Nc1cccc(C(F)(F)F)c1
inactive: [7] 92 % of control | dose: 25.0 mg/kg/injection, schedule: Q01DX009 (ip), vehicle: saline with Tween-80 89 % of control | [8] 86 % of control

ClC1=C(Cl)C2(Cl)C3C4CC(C5OC45)C3C1(Cl)C2(Cl)Cl (stereo not drawn)
inactive: dose: 3.13 mg/kg/injection, schedule: Q01DX009 (ip), vehicle: saline with Tween-80 104 % of control and 97 % of control | dose: 6.25 mg/kg/injection, schedule: Q01DX009 (ip), vehicle: saline with Tween-80 90 % of control and 97 % of control | [7] 86 % of control

O=C1c2ccccc2C(=O)N1SN1C(=O)c2ccccc2C1=O
inactive: [9] 110 % of control | [10] 109 % of control | [11] 102 % of control | dose: 400.0 mg/kg/injection, schedule: Q01DX009 (ip), vehicle: Klucel (hydroxypropylcellulose) (HPC) 109 % of control

Cc1ccc(NC(=O)Oc2cc(C)c(Br)c(C)c2)cc1[N+](=O)[O-]
inactive: dose: 12.5 mg/kg/injection, schedule: Q01DX009 (ip), vehicle: saline 95 % of control | [12] 97 % of control | dose: 50.0 mg/kg/injection, schedule: Q01DX009 (ip), vehicle: saline + alcohol 98 % of control | [13] 101 % of control | dose: 200.0 mg/kg/injection, schedule: Q01DX009 (ip), vehicle: saline + alcohol 100 % of control

O=C(Nc1cccc(Br)c1)Oc1cccc2cccnc12
inactive: dose: 60.0 mg/kg/injection, schedule: Q01DX005 (ip), vehicle: saline with Tween-80 105 % of control | [14] 94 % of control | [15] 90 % of control

O=C(O)CCC(=O)c1ccc2ccc3cccc4ccc1c2c34
inactive: [1] 102 % of control | [8] 101 % of control | [2] 103 % of control | [16] 115 % of control | [3] 99 % of control

CNCCc1c(C2[C@@H]3[C@H](C=C(C)CC3(C)C)[C@]34Nc5ccccc5[C@]23CCN4C)[nH]c2ccccc12 (stereo partly drawn)
inactive: dose: 4.0 mg/kg/injection, schedule: Q01DX009 (ip), vehicle: saline 100 % of control | dose: 8.0 mg/kg/injection, schedule: Q01DX009 (ip), vehicle: saline 94 % of control | dose: 16.0 mg/kg/injection, schedule: Q01DX009 (ip), vehicle: saline 103 % of control | dose: 32.0 mg/kg/injection, schedule: Q01DX009 (ip), vehicle: saline 100 % of control

N=C(N)SCCCN
inactive: [12] 95 % of control | [13] 103 % of control | [17] 112 % of control | [18] 112 % of control

CCCCCCCCCCCC(=O)C(=O)c1ccc(O)cc1O
inactive: [9] 110 % of control | [10] 107 % of control | [11] 109 % of control

CN(C)/N=C/C=C1\N=C(c2ccccc2)OC1=O
inactive: dose: 50.0 mg/kg/injection, schedule: Q01DX005 (ip), vehicle: saline with Tween-80 107 % of control | dose: 100.0 mg/kg/injection, schedule: Q01DX005 (ip), vehicle: saline with Tween-80 104 % of control | dose: 200.0 mg/kg/injection, schedule: Q01DX005 (ip), vehicle: saline with Tween-80 106 % of control

CCOC(=O)C(C#N)(CCC(=NC(C)(C)C)Nc1ccccc1C#N)CCC(=NC(C)(C)C)Nc1ccccc1C#N (stereo not drawn)
inactive: [8] 100 % of control | [16] 94 % of control

[N-]=[N+]=C(S(=O)(=O)O)S(=O)(=O)O
inactive: [13] 107 % of control | [17] 112 % of control | [18] 107 % of control | dose: 400.0 mg/kg/injection, schedule: Q01DX009 (ip), vehicle: saline 107 % of control

CC(C)(C)C(=O)CC(=O)C(F)(F)C(F)(F)C(F)(F)F.CC(C)(C)C(=O)CC(=O)C(F)(F)C(F)(F)C(F)(F)F.CC(C)(C)C(=O)CC(=O)C(F)(F)C(F)(F)C(F)(F)F.[Pr]
inactive: [14] 116 % of control | [15] 113 % of control

CN(C)c1ccc(C(c2cc3c(cc2O)OCO3)N2CCN(C(c3ccc(N(C)C)cc3)c3cc4c(cc3O)OCO4)CC2)cc1 (stereo not drawn)
inactive: [4] 96 % of control | [5] 100 % of control | [6] 99 % of control

CCCCC1CCCCCCc2[nH]c(/C=C3\N=C(c4ccc[nH]4)C=C3OC)cc21 (stereo not drawn)
inactive: dose: 0.12 mg/kg/injection, schedule: Q01DX009 (ip), vehicle: saline with Tween-80 109 % of control and 116 % of control | dose: 0.25 mg/kg/injection, schedule: Q01DX009 (ip), vehicle: saline with Tween-80 110 % of control and 119 % of control | dose: 0.5 mg/kg/injection, schedule: Q01DX009 (ip), vehicle: saline with Tween-80 115 % of control and 123 % of control | dose: 1.0 mg/kg/injection, schedule: Q01DX009 (ip), vehicle: saline with Tween-80 111 % of control and 90 % of control
